Experimental data published in patent publication US20110300198A1, “HYDROCOLLOID - ESSENTIAL OIL PATCHES” (priority 2010, published 2011).
Read-outs that look alike come from different tables or passages of the source.

Tests used:
[1] = Preliminary in-vivo experiment, constituents in blood (GC, WAX column); set-up: species or system rat
[2] = Preliminary in-vivo experiment, constituents in urine (GC); conditions: male, Sprague-Dawley, rat, 7.5 % lavender essential oil in almond oil, collected urine sample, 84 h after the simulated massage
Text: Male Sprague-Dawley rats, weighing 300-350 g, were used in the studies (Harlan, Rehovot, Israel). The experimental protocols were approved by the Hebrew University of Jerusalem Committee on the Use and Care of Animals. Rats were maintained under specified-pathogen-free (SPF) conditions and were allowed to acclimate to the environment for at least 7 days before their use in the study. Rats were anesthetized and the fur on their stomach shaved prior to exposure. […] Each rat was housed in an individual cage in order to prevent oral contamination of the essential oil by one rat eating another's patch. Blood samples (0.5 ml) were taken at 0, 12, 24, 36, 48 and 60 h from a nick at the tip of tail to determine contents of essential-oil components. Rats were restrained and the tail was gently massaged to facilitate blood collection. […] Urine samples were similarly analyzed by gas chromatography (GC).
Similar values of camphor (FIG. 17) were detected following application of a lavender oil patch on the back and abdomen. […] In the blood of rats with an abdomen-adhered patch, more linalyl acetate was detected than in the blood of rats with a back patch. […] In a collected urine sample, 0.01265 mg L^−1 linalool and 0.00903 mg L^−1 linalyl acetate were detected. […] In addition, no traces of camphor were detected in the urine (note that the urine analysis was performed 84 h after the simulated massage).

[3] = In-vivo experiment with WAX column, constituents in blood; set-up: species or system rat; conditions: 7.5% lavender oil patch on abdomen; split injection
Text: Male Sprague-Dawley rats, weighing 300-350 g, were used in the studies (Harlan, Rehovot, Israel). The experimental protocols were approved by the Hebrew University of Jerusalem Committee on the Use and Care of Animals. Rats were maintained under specified-pathogen-free (SPF) conditions and were allowed to acclimate to the environment for at least 7 days before their use in the study. Rats were anesthetized and the fur on their stomach shaved prior to exposure. Gum karaya patches with and without lavender essential oil were applied to the rat's stomach skin. Each rat was housed in an individual cage in order to prevent oral contamination of the essential oil by one rat eating another's patch. Blood samples (0.5 ml) were taken at 0, 12, 24, 36, 48 and 60 h from a nick at the tip of tail to determine contents of essential-oil components. Rats were restrained and the tail was gently massaged to facilitate blood collection. Blood samples were collected in vials containing 0.1 ml heparin (100 kU, Sigma). A 10-μl volume of aqueous linalyl isovalerate stock solution was added as an internal standard to each blood sample and samples were stored at −80° C. […] Urine samples were similarly analyzed by gas chromatography (GC). […]
Patches that included lavender essential oil were adhered to the abdomen skin for 60 h. […] Between 12 and 36 h, a similar, non-significant change in levels was detected. […]

[4] = Extraction of lavender essential oil constituents from the skin after patch application; format: in vivo; conditions: male, Sprague-Dawley, rat, 7.5 % lavender oil in patch, skin under 7.5% lavender oil patch, removed after 60 h, read-out: Concentration extracted from the skin
Text: Male Sprague-Dawley rats, weighing 300-350 g, were used in the studies (Harlan, Rehovot, Israel). The experimental protocols were approved by the Hebrew University of Jerusalem Committee on the Use and Care of Animals. Rats were maintained under specified-pathogen-free (SPF) conditions and were allowed to acclimate to the environment for at least 7 days before their use in the study. Rats were anesthetized and the fur on their stomach shaved prior to exposure. Gum karaya patches with and without lavender essential oil were applied to the rat's stomach skin. Each rat was housed in an individual cage in order to prevent oral contamination of the essential oil by one rat eating another's patch. Blood samples (0.5 ml) were taken at 0, 12, 24, 36, 48 and 60 h from a nick at the tip of tail to determine contents of essential-oil components. Rats were restrained and the tail was gently massaged to facilitate blood collection. Blood samples were collected in vials containing 0.1 ml heparin (100 kU, Sigma). […] Urine samples were similarly analyzed by gas chromatography (GC).
Skin to which patches with or without lavender essential oil were adhered were sampled for extraction. […] When a control patch was adhered to the skin, no constituents of lavender essential oil were detected. […]

[5] = cited from earlier work

| Highest concentration in blood ([1]; 30 min after rubbing the skin with almond-lavender essential oil mixture) [mg/L] | Highest concentration in blood ([1]; 36 h after a 7.5% lavender essential oil patch was adhered to the abdomen) [mg/L] | Time for which the constituent was evident in the blood ([1]; after rubbing the skin with the almond-essential oil mixture) [min] | concentration at 84 h ([2]; topical) [ng/mL] | Level in blood after 60 h [3] | concentration at 60 h ([4]; skin (ethanol extract of the application site), topical) [ng/mL] | Structure (SMILES) | Solubility in water [5] | Detection in blood ([1]; after rubbing with the almond-lavender oil mixture (massage)) | concentration at 84 h ([2]; in vivo) [ng/mL] | concentration at 60 h ([4]; in vivo, ethanol extract) [ng/mL] |
| --- | --- | --- | --- | --- | --- | --- | --- | --- | --- | --- |
| 0.32 | 0.48 | 80 | 12.7 | no traces | 62 | C=CC(C)(O)CCC=C(C)C (centres unmarked) [Linalool] | relatively high | – | – | – |
| – | – | – | – | – | – | C=CC(C)(CCC=C(C)C)OC(C)=O (centres unmarked) [Linalyl acetate] | relatively low | No linalyl acetate was detected | 9.03 | 241 |
